Measurements: PMC4585798 (Scientific Reports, 2015)
No end group written: not given here.

Experiments:
hα9α10[L7H] nAChR = hα9α10[L7H] nAChR (Homo sapiens, UniProt Q9GZZ6+Q9UGM1, L31H); assay: cell-based; assay type: cell-based
[1] = biological target: the molecule itself; assay: mass spectrometry before and after reduction and alkylation

Chain of hα9α10[L7H] nAChR (Q9UGM1 26-479 limits assumed, stated change not applied): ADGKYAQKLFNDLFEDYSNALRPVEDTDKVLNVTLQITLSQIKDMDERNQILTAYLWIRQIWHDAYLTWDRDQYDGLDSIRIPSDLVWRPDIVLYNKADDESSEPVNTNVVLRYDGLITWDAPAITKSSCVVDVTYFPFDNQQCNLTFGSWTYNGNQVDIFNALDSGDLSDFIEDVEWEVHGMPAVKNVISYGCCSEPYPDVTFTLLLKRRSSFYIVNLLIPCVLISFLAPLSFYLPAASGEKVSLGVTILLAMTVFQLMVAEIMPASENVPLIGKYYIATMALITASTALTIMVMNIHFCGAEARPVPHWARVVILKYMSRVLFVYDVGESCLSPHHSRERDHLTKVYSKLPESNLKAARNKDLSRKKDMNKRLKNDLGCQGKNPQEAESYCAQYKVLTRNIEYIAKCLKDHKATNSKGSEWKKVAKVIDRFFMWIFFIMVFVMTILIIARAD
Chain of hα9α10[L7H] nAChR (Q9GZZ6 25-450 L31H limits assumed, stated change not applied): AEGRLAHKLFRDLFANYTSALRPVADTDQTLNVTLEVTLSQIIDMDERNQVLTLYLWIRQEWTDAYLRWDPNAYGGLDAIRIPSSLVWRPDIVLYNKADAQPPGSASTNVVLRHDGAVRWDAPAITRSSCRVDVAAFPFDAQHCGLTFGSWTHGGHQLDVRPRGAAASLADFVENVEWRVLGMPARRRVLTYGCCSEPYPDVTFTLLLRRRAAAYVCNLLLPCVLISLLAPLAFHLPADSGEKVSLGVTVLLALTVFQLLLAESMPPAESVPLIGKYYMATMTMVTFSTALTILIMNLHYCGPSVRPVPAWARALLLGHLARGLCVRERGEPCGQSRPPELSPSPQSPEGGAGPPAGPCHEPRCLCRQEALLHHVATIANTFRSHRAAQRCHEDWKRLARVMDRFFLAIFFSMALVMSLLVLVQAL

Molecule	effect of α10 L7H mutation on inhibitory activity (in words) (hα9α10[L7H] nAChR)	stoichiometry N [1]
Vc1.1 [reference compound]	not affected by this mutation	
DVHRPCQSVRPGRVWGKCCLTRLCSTMCCARADCTCVYHTWRGHGCSCVM (ends and bridges not checked; cysteine pairing not given here) [αD-conotoxin GeXXA]		2
